Assay results: PMC6244841, “Enhanced Absorption and Growth Inhibition with Amino Acid Monoester Prodrugs of Floxuridine by Targeting hPEPT1 Transporters” (Molecules, 2008)
Marks after values point to notes of the source that are not given here.

Columns and labels:
[1] = Enzymatic stability in AsPC-1 cell homogenates; assay type: in vitro ADME; settings: for half-life: human, AsPC-1 cell homogenate, pH 7.4, 37°C, protein 500 μg/mL, mean ± S.D., read-out: Half Life, Homogenates from AsPC-1 cells
Experimental: (§1) The experiments concerning prodrug stability were performed at 37°C in pH 7.4 phosphate buffers and Caco-2, AsPC-1, and MDCK cell homogenates.
(§2) Enzymatic Stability. Confluent Caco-2 cells, AsPC-1 cells, and MDCK cells were rinsed twice with saline. The cells were washed with pH 7.4 phosphate buffer (5 mL, 10 mmol/L), lysed by ultrasonication (Micro ultrasonic cell disrupter Model KT40, Kontes, Vineland, NJ, USA), and pelleted by centrifugation for 5 minutes at 1,000 x g. Protein amount was quantified with the Bio-Rad (Hercules, CA, USA) DC Protein Assay using bovine serum albumin as a standard. The amount of protein was adjusted to 500 μg/mL and hydrolysis reactions were carried out in 96-well plates (Corning). Caco-2, AsPC-1, and MDCK cell suspensions (250 µL) were placed in triplicate wells, the reactions were started with the addition of substrate, and cells were incubated at 37°C for 120 minutes. At the desired time point, sample aliquots (35 µL) were removed and added to acetonitrile (ACN, 150 µL) with 0.1% TFA. The mixtures were filtered with a 0.45 µm filters at 1,000 x g for 10 minutes at 4°C. The filtrate was then analyzed via reverse-phase HPLC.
(§3) The initial rates of hydrolysis were used to obtain the apparent first-order rate constants and to calculate the half-lives. The apparent first-order degradation rate constants of various floxuridine prodrugs at 37°C were determined by plotting the logarithm of prodrug remaining as a function of time. The slopes of these plots are related to the rate constant, k, and given by
(§4) k = 2.303 × slope (log C vs. time) (1)
(§5) The degradation half-lives were then calculated by the equation

hPEPT1 [2] = biological target: T1, hPEPT1 (Homo sapiens, UniProt P46059); test: [3H]Gly-Sar uptake inhibition in AsPC-1 cells; assay type: cell-based; settings: for IC50: 10 µmol/L Gly-Sar, 30 minutes, mean ± S.D., read-out: IC50 Value, inhibition of Gly-Sar uptake, AsPC-1 cell
T1 sequence (P46059 1-708): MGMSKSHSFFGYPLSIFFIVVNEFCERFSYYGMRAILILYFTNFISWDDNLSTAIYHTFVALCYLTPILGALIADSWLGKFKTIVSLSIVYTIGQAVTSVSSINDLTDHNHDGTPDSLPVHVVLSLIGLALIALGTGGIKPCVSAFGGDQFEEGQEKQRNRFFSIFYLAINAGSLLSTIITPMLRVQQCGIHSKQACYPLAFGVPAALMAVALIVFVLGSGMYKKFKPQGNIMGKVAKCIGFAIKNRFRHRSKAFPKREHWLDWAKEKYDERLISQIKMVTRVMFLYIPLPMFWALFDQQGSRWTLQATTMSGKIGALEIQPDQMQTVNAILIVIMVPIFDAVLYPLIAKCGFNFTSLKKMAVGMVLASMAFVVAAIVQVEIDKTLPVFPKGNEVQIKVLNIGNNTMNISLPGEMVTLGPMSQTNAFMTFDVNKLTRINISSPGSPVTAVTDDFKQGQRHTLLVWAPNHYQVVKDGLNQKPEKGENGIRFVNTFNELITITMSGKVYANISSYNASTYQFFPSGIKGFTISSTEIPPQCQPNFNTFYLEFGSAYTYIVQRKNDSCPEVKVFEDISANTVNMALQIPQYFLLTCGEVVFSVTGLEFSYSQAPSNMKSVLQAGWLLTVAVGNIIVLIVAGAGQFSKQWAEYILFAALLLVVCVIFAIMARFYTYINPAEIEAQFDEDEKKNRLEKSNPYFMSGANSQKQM
Experimental: (§6) Caco-2 cells at nine days post-seeding, and AsPC-1 cells at four days post-seeding were incubated with 10 µmol/L Gly-Sar (9.98 µmol/L Gly-Sar and 0.02 µmol/L [3H]Gly-Sar) along with various prodrug concentrations (5–0.05 mmol/L) for 30 minutes. The cells were washed three times with ice-cold PBS and solubilized with 10 mL of scintillation cocktail (ScintiVerse®, Fisher Scientific, St.Louis, MO, USA). The amount of cell-associated radioactivity was determined by scintillation counting (Beckman LS-9000, Beckman Instruments, Fullerton, CA, USA). The half maximal inhibitory concentration (IC50) values were determined using nonlinear data fitting (GraphPad Prism version 3.0).

[3] = Enzymatic stability in Caco-2 cell homogenates; assay type: in vitro ADME; settings: for half-life: human, Caco-2, pH 7.4, 37°C, protein 500 μg/mL, mean ± S.D., read-out: Half Life, Homogenates from Caco-2 cells
Experimental: as §1, §2, §3, §4, §5

MDCK/hPEPT1 cells = test: Cell proliferation assay (XTT) in MDCK/hPEPT1 cells; assay type: cell-based; settings: for GI50: Canis lupus familiaris, MDCK, read-out: GI50, MDCK/hPEPT1
Experimental: (§7) Cell proliferation studies were conducted with MDCK cells and MDCK cells that express hPEPT1 (MDCK/hPEPT1). The cells were seeded into 96-well plates at 125,000 cells per well and allowed to attach/grow for 24 hours before drug solutions were added. The culture medium (DMEM + 10% fetal bovine serum) was removed and the cells were gently washed once with sterile pH 6.0 uptake buffer. Floxuridine and floxuridine prodrugs were 2-fold serially diluted in pH 6.0 uptake buffer from 4 to 0.25 mmol/L. Buffer alone was used as 100% viability control. The wash buffer was removed and 30 µL drug solution per well was added and incubated at 37°C for 2 hours in the cell incubator. After this time, the drug solutions were removed and the cells were again gently washed twice with sterile uptake buffer. The culture medium was then added to each well after washing. The cells were allowed to recover for 24 hours before evaluating cell viability via 2,3-bis[2-methoxy-4-nitro-5-sulfophenyl]-2H-tetrazolium-5-carboxanilide inner salt (XTT) assays. A mixture (30 µL) containing XTT (1 mg/mL) in sterile DMEM without phenol red and phenazine methosulfate (N-methyldibenzopyrazine methyl sulfate in sterile PBS, 0.383 mg/mL) reagents were added to the cells and incubated at 37°C for 1 hour, after which the absorbance at 450 nm was read. The concentrations required to inhibit cell growth by 50% (GI50) were calculated using GraphPad Prism version 3.0 by nonlinear data fitting.

[4] = Chemical stability (nonenzymatic hydrolysis) in pH 7.4 phosphate buffer; assay type: physicochemical; settings: 37°C, mean ± S.D.
Experimental: as §1
Chemical Stability. The nonenzymatic hydrolysis of the prodrugs was determined as described above, except that each well contained pH 7.4 phosphate buffers (10 mmol/L) instead of cell homogenate.
as §3, §4, §5

MDCK cells = test: Cell proliferation assay (XTT) in MDCK cells; assay type: cell-based; settings: Canis lupus familiaris, 2 hours exposure, 24 hours recovery, mean ± S.D.
Experimental: as §7

hPEPT1 [5] = biological target: T1, hPEPT1; test: [3H]Gly-Sar uptake inhibition in Caco-2 cells; assay type: cell-based; settings: for IC50: 10 µmol/L Gly-Sar, 30 minutes, mean ± S.D., read-out: IC50 Value, inhibition of Gly-Sar uptake, Caco-2 cell
Experimental: as §6

[6] = Enzymatic stability in MDCK cell homogenates; assay type: in vitro ADME; settings: dog, pH 7.4, 37°C, protein 500 μg/mL, mean ± S.D., read-out: Half Life, Homogenates from MDCK cells
Experimental: as §1, §2, §3, §4, §5

[7] = set-up: method as in PMID 16132363; settings: pH 7.4 phosphate buffer, 37°C, mean ± S.D.; ref [40]; cited from earlier work
[8] = Caco-2 permeability study (apical-to-basolateral); settings: relative to 5-FU
[9] = relative to 5'-O-L-valyl-floxuridine

Row | Compound | half-life [1] [min] | IC50 (hPEPT1 [2]) [µM] | half-life [3] [min] | GI50 (MDCK/hPEPT1 cells) [µM] | Enhancement Factor (ratio of GI50 in MDCK and MDCK/hPEPT1 cells) (MDCK/hPEPT1 cells) | half-life [4] [min] | GI50 (MDCK cells) [µM] | IC50 (hPEPT1 [5]) [µM] | half-life [6] [min] | other results
1 | CC(C)[C@H](N)C(=O)OC[C@H]1O[C@@H](n2cc(F)c(=O)[nH]c2=O)C[C@@H]1O [5'-O-L-valyl-floxuridine] | 18.7 ± 6.7 | 2900 ± 400 | 9.4 ± 0.6 | 21.1 ± 4.2 | 5.91 | 304 ± 17.8 | 127 ± 7.7 | 1000 ± 100 | 74.7 ± 5.3 | fold shorter half-life in Caco-2 cell homogenates than in AsPC-1 cell homogenates ([3]; Caco-2 vs AsPC-1 cell homogenates): 2 fold; Enhancement Factor (ratio of GI50 in MDCK and MDCK/hPEPT1 cells) (MDCK/hPEPT1 cells; listed as 5ʹ-O-L-valyl-floxuridine): about 6
2 | CC[C@H](C)[C@H](N)C(=O)OC[C@H]1O[C@@H](n2cc(F)c(=O)[nH]c2=O)C[C@@H]1O [5'-O-L-isoleucyl-floxuridine] | 198 ± 34.1 | 4100 ± 1800 | 192 ± 31.8 | 10.3 ± 2.9 | 18.04 |  | 186 ± 4.2 | 700 | 245 ± 18.3 | Enhancement Factor (ratio of GI50 in MDCK and MDCK/hPEPT1 cells) (MDCK/hPEPT1 cells; listed as 5ʹ-O-L-isoleucyl-floxuridine): 18; Half Life, Buffer pH 7.4 [7]: 323.5 ± 1.5^a min
3 | CC(C)C[C@H](N)C(=O)OC[C@H]1O[C@@H](n2cc(F)c(=O)[nH]c2=O)C[C@@H]1O [5'-O-L-leucyl-floxuridine] | 2 ± 0.1 | 2600 ± 200 | 4.8 ± 0.2 | 2.3 ± 1 | 10.09 | 77.3 ± 1.2 | 23.5 ± 3 | 2000 ± 300 | 9.2 ± 1.1 | fold more quickly hydrolyzed in AsPC-1 cell homogenates than in Caco-2 cell homogenates ([1]; AsPC-1 vs Caco-2 homogenates): 2.4 fold; fold more quickly hydrolyzed in AsPC-1 cell homogenates than in MDCK cell homogenates ([1]; AsPC-1 vs MDCK homogenates): 4.7 fold; Enhancement Factor (ratio of GI50 in MDCK and MDCK/hPEPT1 cells) (MDCK/hPEPT1 cells; listed as 5ʹ-O-L-leucyl-floxuridine): 10
4 | CC(C)[C@@H](N)C(=O)OC[C@H]1O[C@@H](n2cc(F)c(=O)[nH]c2=O)C[C@@H]1O [5'-O-D-valyl-floxuridine] | 291 ± 48.9 | 4800 ± 1300 | 343 ± 120 | 71 ± 2.7 | 1.25 | 345 ± 10.2 | 88.5 ± 2.6 | 2600 ± 100 | 312 ± 45.4 | fold less inhibition of the transporters than 5'-O-L-valyl-floxuridine, AsPC-1 cells (hPEPT1 [2]; [9]): 1.6 fold; improvement of cell growth inhibition in MDCK/hPEPT1 cells (MDCK/hPEPT1 cells; MDCK/hPEPT1 vs MDCK): 25%; fold less inhibition of the transporters than 5'-O-L-valyl-floxuridine, Caco-2 cells (hPEPT1 [5]; [9]): 2.5 fold
5 | N[C@@H](Cc1ccccc1)C(=O)OC[C@H]1O[C@@H](n2cc(F)c(=O)[nH]c2=O)C[C@@H]1O [5'-O-L-phenylalanyl-floxuridine] | 11.8 ± 1.7 | 2000 ± 100 | 11.1 ± 9.9 | 4.7 ± 2.4 | 8.80 | 222 ± 56.7 | 41.3 ± 3.9 | 2100 ± 100 | 6 ± 0.6 | fold less stability in cell homogenates compared to pH 7.4 phosphate buffers ([3]; cell homogenates vs pH 7.4 phosphate buffers): 20 fold
6 | NCC(=O)OC[C@H]1O[C@@H](n2cc(F)c(=O)[nH]c2=O)C[C@@H]1O [5'-O-L-glycyl-floxuridine] | 27.6 ± 5.8 | 2700 ± 500 | 24.1 ± 2 |  |  | 85.5 ± 3.2 |  | 2300 ± 600 | 11.2 ± 2 | 
7 | O=c1[nH]c(=O)n([C@H]2C[C@H](O)[C@@H](CO)O2)cc1F [Floxuridine, 5-fluoro-2'-deoxyuridine] | 6.4 ± 3.2 | 6300 ± 2300 | 5.7 ± 0.3 |  | 1.00 |  |  | 7300 ± 1600 | 68.9 ± 12.8 | fold higher Caco-2 membrane permeability than 5-FU [8]: 12 fold
